Measurements reported in US8022103B2, “Ester prodrugs of prostratin and related phorbol compounds” (Salvia Sciences, Inc., priority 2005, dated 2011).
In brackets after ≈: the same amount, converted by molar mass. Like-named read-outs stand apart in the source and are kept apart here.

How the values were obtained:
[1] = Solubility in pH controlled solutions and intravenous formulations; type: physicochemical
Method: Solubility of prostratin and SA-101B was measured in pH controlled solutions and in various representative formulations, in particular, intravenous formulations, where solubility is often a limiting factor.

HepG2-2.2.15 cells = test: Dye uptake cell viability in HepG2-2.2.15 cells; type: cell-based; settings: at the concentrations evaluated
Method: HepG2 2.2.15 Antiviral Assay. The assay developed is similar to that described ion the literature (Korba et al., 1991, Antiviral Res. 15: 217-228; Korba et al., 1992, Antiviral Res. 19: 55-70) with the exception that viral DNA detection and quantification have been improved and simplified (Buckwold et al., 2004, Antiviral Res. 61(1): 57-62). Briefly, HepG2-2.2.15 cells are plated in 96-well microtiter plates. Only the interior wells are utilized to reduce “edge effects” observed during cell culture; the exterior wells are filled with complete medium to help minimize sample evaporation. After 16-24 hours the confluent monolayer of HepG2-2.2.15 cells is washed and the medium is replaced with complete medium containing various concentrations of a test compound in triplicate. […] Six days following the initial administration of the test compound, the cell culture supernatant is collected, treated with pronase and DNAse and then used in a real-time quantitative TaqMan PCR assay. The PCR-amplified HBV DNA is detected in real-time by monitoring increases in fluorescence signals that result from the exonucleolytic degradation of a quenched fluorescent probe molecule that hybridizes to the amplified HBV DNA. […] Antiviral activity is calculated from the reduction in HBV DNA levels (IC50). […] The therapeutic index (TI) is calculated as TC50/IC50.

[2] = tested on: cell line ET (luc-ubi-neo/ET), human Huh7 hepatoma; test: CytoTox-ONE cytotoxicity in ET (luc-ubi-neo/ET) Huh7 cells; type: cell-based
Method: Luciferase assay. The ET cell line is grown in Dulbecco's modified essential media (DMEM), 10% fetal bovine serum (FBS), 1% penicillin-streptomycin (pen-strep), 1% glutamine, […] G418 in a 5% CO2 incubator at 37° C. All cell culture reagents are from Gibco Life Technologies. Cells are trypsinized (1% trypsin:EDTA) and plated out at 5×10^3 cells/well in white 96-well assay plates (Costar) dedicated to cell number (cytotoxicity) or antiviral activity (Luc) assessments. Drugs are added at five half-log concentrations each and the assay is run in DMEM, 5% FBS, 1% pen-strep, 1% glutamine. Human interferon alpha-2b (PBL Biolabs, New Brunswick, N.J.) is included in each run as a positive control compound. […] Compound IC50 and IC90 values (antiviral activity) are derived from plots of HCV RNA levels assessed as HCV RNA replicon-derived Luc activity versus drug concentration using Steady-Glo assay reagent (Promega), with Luc luminescence read on a 1450 Microbeta liquid scintillation and luminescence counter. Compound TC50 and TC90 values (cytotoxicity) are calculated from plots of cell number vs. drug concentration using data from the CytoTox-ONE cell proliferation assay (Promega); with fluorescence read using an Analyst HT fluorometer. […] Compound selectivity indices (SI=TC/IC) SI50 and SI90 values are calculated from spreadsheets.

In the case of CC(=O)O[C@@]12C[C@@H](C)[C@@]3(O)[C@@H](C=C(CO)C[C@]4(O)C(=O)C(C)=C[C@@H]34)[C@@H]1C2(C)C [SA-101A, 12-deoxyphorbol 13-acetate], the solubility ([1]; 5% dextrose (intravenous formulation), saline or isotonic, read-out: Solubility 5% Dextrose) is reported as 330 µg/mL (≈ 845 µM), the solubility ([1]; pH controlled solution, pH 1, simulated gastric fluid, read-out: Solubility pH 1) is reported as 370 µg/mL (≈ 948 µM) and the solubility ([1]; pH controlled solution, pH 2, simulated gastric fluid, read-out: Solubility pH 2) is reported as 370 µg/mL (≈ 948 µM). It also gave a solubility ([1]; pH controlled solution, pH 5, aqueous buffer, read-out: Solubility pH 5) of 450 µg/mL (≈ 1150 µM), a solubility ([1]; pH controlled solution, pH 7.5, aqueous buffer, read-out: Solubility pH 7.5) of 420 µg/mL (≈ 1080 µM) and a solubility ([1]; pH controlled solution, pH 9, aqueous buffer, read-out: Solubility pH 9) of 390 µg/mL (≈ 999 µM). The solubility ([1]; saline (0.9% NaCl) (intravenous formulation), saline or isotonic, read-out: Solubility Saline (0.9% NaCl)) was 340 µg/mL (≈ 871 µM), the Cytotoxicity (HepG2-2.2.15 cells) was “no cytotoxicity” and the Cytotoxicity [2] was “did not appear to be active or cytotoxic”.
For CC(=O)OC12CC(C)C3(O)C(C=C(COC(=O)CCC(=O)O)CC4(O)C(=O)C(C)=CC43)C1C2(C)C (stereo not shown) [SA-101B, Prostratin Succinate], the “Solubility 5% Dextrose” value ([1]; 5% Dextrose) was >10000 µg/mL, the “Solubility Saline (0.9% NaCl)” value ([1]; Saline (0.9% NaCl)) was >10000 µg/mL and the “Solubility compared with prostratin” value ([1]; all media) was “better solubility than prostratin”. The “Solubility pH 1” value ([1]; pH 1) was 1.21 mg/mL, the “Solubility pH 2” value ([1]; pH 2) was 4.46 mg/mL and the “Solubility pH 5” value ([1]; pH 5) was 7.72 mg/mL. For the same molecule, the “Solubility pH 7.5” value ([1]; pH 7.5) was 11.20 mg/mL, the “Solubility pH 9” value ([1]; pH 9) was 12.08 mg/mL and the Cytotoxicity (HepG2-2.2.15 cells) was “no cytotoxicity”. The Cytotoxicity [2] was “did not display any appreciable cytotoxicity”.
